The results in this text go back to patent publication US10035778B2, “Meta-azacyclic amino benzoic acid derivatives as pan integrin antagonists” (Saint Louis University, priority 2015, dated 2018).

As usually defined, the IC50 is the concentration needed to halve the response being measured.

Holding throughout (assay type): binding
For assay [1], the target named is Recombinant human integrin α8β1 (Homo sapiens (Human), UniProt P05556+P53708). The experiment in a line: Solid Phase Receptor Assay (SPRA) for α8β1 function. The following applies: mouse nephronectin-coated plate. On the procedure:
7. Solid Phase Receptor Assay (SPRA) for α8β1 Function
Recombinant mouse nephronectin protein (R&D Systems, Inc, 4298-NP) diluted to 1 μg/mL in TBS+ buffer (25 mM Tris pH 7.4, 137 mM NaCl, 2.7 mM KCl, 1 mM CaCl2, 1 mM MgCl2, 1 mM MnCl2) was added to wells (50 μl/well) of a 96-well half-well transparent microtiter plate (Greiner 675061), and incubated overnight at 4° C. Wells were washed 3 times with 150 μL TBS+ and 150 μL of blocking buffer (TBS+ with 1% bovine serum albumin, Sigma A7906) were added. The plate was incubated for 1 hr at 37° C. and then washed 3× with TBS+. Recombinant human integrin α8β1 (R&D Systems, pre-launch) was diluted to 0.25 μg/mL in TBS+/0.1% bovine serum albumin. Compounds were diluted 1:100 into the integrin solution and 50 μL added to empty wells of the washed nephronectin-coated plate according to a standard template with each sample repeated in triplicate. After incubation for two hours at room temperature, the plate was washed 3× with 150 μL of TBS+. To each well, 50 μL of biotinylated anti-β antibody (R&D Systems, BAF1778) at 0.5 μg/mL in TBS+/0.1% BSA were added and the plate was covered and incubated for 1 hr at room temperature. After washing the plate 3× with 150 μL of TBS+ buffer, 50 μL of streptavidin-conjugated horseradish peroxidase (R&D Systems, DY998) diluted in TBS+ blocking buffer were added to the wells and the plate incubated for 20 min at room temperature. The plate was washed 3× with TBS+ followed by 50 μL of TMB substrate (Sigma T4444) added to each well and the plate incubated for 20 min at room temperature. Plates were read by colorimetric detection at 650 nm wavelength using a Tecan Safire II plate reader. Concentration-response curves were constructed by non-linear regression (best fit) analysis, and IC50 values were calculated for each compound.

Assay [2] addresses Recombinant human integrin αvβ3 (Homo sapiens (Human), UniProt P05106+P06756). The experiment in a line: Solid Phase Receptor Assay (SPRA) for αvβ3 function. The following applies: vitronectin-coated plate. The method, then:
3. Solid Phase Receptor Assay (SPRA) for αvβ3 Function
Recombinant human vitronectin (R& D Systems, 2308-VN) diluted to 1 μg/mL in TBS+ buffer (25 mM Tris pH 7.4, 137 mM NaCl, 2.7 mM KCl, 1 mM CaCl2, 1 mM MgCl2, 1 mM MnCl2) was added to wells (50 μL/well) of a 96-well half-well transparent microtiter plate (Greiner 675061) and incubated overnight at 4° C. Wells were washed 3 times with 150 μL TBS+ and 150 μL of blocking buffer (TBS+ with 1% bovine serum albumin, Sigma A7906) were added. The plate was incubated for 1 hr at 37° C. and then washed 3× with TBS+ buffer. Recombinant human integrin αvβ3 (R&D Systems, 3050-AV) was diluted to 1 μg/mL in TBS+/0.1% bovine serum albumin. Compounds were diluted 1:100 into the integrin solution and then 50 μL added to empty wells of the washed vitronectin-coated plate according to a standard template with each sample repeated in triplicate. After incubation for two hours at room temperature, the plate was washed 3× with 150 μL of TBS+ buffer. To each well, 50 μL of biotinylated anti-αv antibody (R&D Systems, BAF1219) at 0.5 μg/mL in TBS+/0.1% BSA were added and the plate covered and incubated for 1 hr at room temperature. After washing the plate 3× with 150 μL of TBS+ buffer, 50 μL of streptavidin-conjugated horseradish peroxidase (R&D Systems, DY998) diluted in TBS+ blocking buffer were added to the wells and the plate incubated for 20 min at room temperature. The plate was washed 3× with TBS+ buffer followed by 50 μL of TMB substrate (Sigma, T4444) added to each well and the plate was incubated for 20 min at room temperature. Plates were read by colorimetric detection at 650 nm wavelength using a Tecan Safire II plate reader. Concentration-response curves were constructed by non-linear regression (best fit) analysis, and IC50 values were calculated for each compound.

For assay [3], the target named is Recombinant human integrin αvβ6 (Homo sapiens (Human), UniProt P06756+P18564). Briefly: Solid Phase Receptor Assay (SPRA) for αvβ6 function. The following applies: LAP-coated plate. On the procedure:
5. Solid Phase Receptor Assay (SPRA) for αvβ6 Function
Recombinant human LAP (R&D Systems, 246-LP) diluted to 0.25 μg/mL in TBS+ buffer (25 mM Tris pH 7.4, 137 mM NaCl, 2.7 mM KCl, 1 mM CaCl2, 1 mM MgCl2, 1 mM MnCl2) was added to wells (50 μL/well) of a 96-well half-well transparent microtiter plate (Greiner 675061) and incubated overnight at 4° C. Wells were washed 3 times with 150 μL TBS+, and 150 μL of blocking buffer (TBS+ with 1% bovine serum albumin, Sigma A7906) were added. The plate was incubated for 1 hr at 37° C., and then washed 3× with TBS+ buffer. Recombinant human integrin αvβ6 (R&D Systems, 3817-AV) was diluted to 0.1 μg/mL in TBS+/0.1% bovine serum albumin. Compounds were diluted 1:100 into the integrin solution and then 50 μL added to empty wells of the washed LAP-coated plate according to a standard template with each sample repeated in triplicate. After incubation for two hours at room temperature, the plate was washed 3× with 150 μL of TBS+ buffer. To each well, 50 μL of biotinylated anti-αv antibody (R&D Systems, BAF1219) at 0.5 μg/mL in TBS+/0.1% BSA were added and the plate was covered and incubated for 1 hr at room temperature. After washing the plate 3× with 150 μL of TBS+ buffer, 50 μL of streptavidin-conjugated horseradish peroxidase (R&D Systems, DY998) diluted in TBS+ blocking buffer were added to the wells and the plate incubated for 20 min at room temperature. The plate was washed 3× with TBS+ buffer followed by 50 μL of TMB substrate (Sigma T4444) added to each well and the plate incubated for 20 min at room temperature. Plates were read by colorimetric detection at 650 nm wavelength using a Tecan Safire II plate reader. Concentration-response curves were constructed by non-linear regression (best fit) analysis, and IC50 values were calculated for each compound.

Recombinant human integrin αvβ3, sequence (P06756 31-992): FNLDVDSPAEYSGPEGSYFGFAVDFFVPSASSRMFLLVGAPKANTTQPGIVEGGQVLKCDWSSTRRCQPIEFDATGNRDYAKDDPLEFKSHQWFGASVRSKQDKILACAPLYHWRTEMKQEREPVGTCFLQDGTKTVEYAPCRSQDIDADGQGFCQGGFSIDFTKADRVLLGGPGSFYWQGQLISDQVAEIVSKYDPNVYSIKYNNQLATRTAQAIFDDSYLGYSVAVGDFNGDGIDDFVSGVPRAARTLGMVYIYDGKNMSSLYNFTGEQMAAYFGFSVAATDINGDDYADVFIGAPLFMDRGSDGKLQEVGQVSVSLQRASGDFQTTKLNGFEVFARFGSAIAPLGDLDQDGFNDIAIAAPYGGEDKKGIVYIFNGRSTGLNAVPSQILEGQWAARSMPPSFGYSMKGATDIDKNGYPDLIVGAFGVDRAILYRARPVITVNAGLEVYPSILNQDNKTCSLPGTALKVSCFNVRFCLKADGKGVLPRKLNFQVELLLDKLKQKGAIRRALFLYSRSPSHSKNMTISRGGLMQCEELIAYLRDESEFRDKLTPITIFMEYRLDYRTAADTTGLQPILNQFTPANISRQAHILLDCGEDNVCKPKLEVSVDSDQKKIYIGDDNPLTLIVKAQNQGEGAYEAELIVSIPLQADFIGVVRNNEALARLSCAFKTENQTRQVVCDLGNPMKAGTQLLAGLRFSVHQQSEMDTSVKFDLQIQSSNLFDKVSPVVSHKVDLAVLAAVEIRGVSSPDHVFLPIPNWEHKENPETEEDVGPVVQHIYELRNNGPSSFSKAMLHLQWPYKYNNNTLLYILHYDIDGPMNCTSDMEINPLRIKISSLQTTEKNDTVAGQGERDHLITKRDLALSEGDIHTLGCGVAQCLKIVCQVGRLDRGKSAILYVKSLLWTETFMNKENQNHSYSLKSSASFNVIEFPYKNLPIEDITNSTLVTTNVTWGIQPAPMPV
Recombinant human integrin αvβ3, sequence (P05106 27-718): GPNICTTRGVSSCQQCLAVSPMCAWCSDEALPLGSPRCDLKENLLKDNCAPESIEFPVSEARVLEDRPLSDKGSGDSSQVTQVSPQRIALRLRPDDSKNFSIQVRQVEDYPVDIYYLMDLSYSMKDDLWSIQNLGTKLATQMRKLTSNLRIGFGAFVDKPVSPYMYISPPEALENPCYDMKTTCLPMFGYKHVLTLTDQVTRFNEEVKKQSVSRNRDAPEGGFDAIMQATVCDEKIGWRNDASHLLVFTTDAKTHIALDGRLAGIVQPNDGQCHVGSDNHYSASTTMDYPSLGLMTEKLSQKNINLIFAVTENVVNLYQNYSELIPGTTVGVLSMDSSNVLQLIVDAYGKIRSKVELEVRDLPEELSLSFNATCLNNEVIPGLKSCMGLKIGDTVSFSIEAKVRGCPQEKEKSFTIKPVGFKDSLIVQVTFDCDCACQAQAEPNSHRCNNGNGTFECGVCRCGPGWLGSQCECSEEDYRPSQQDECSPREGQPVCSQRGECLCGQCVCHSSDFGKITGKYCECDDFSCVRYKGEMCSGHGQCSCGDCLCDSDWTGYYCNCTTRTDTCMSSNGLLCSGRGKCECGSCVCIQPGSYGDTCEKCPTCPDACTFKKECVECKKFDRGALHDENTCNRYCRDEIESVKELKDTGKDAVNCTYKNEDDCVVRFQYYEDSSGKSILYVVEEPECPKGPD
Recombinant human integrin αvβ6, sequence (P06756 31-992): as the sequence (P06756 31-992) above
Recombinant human integrin αvβ6, sequence (P18564 22-707): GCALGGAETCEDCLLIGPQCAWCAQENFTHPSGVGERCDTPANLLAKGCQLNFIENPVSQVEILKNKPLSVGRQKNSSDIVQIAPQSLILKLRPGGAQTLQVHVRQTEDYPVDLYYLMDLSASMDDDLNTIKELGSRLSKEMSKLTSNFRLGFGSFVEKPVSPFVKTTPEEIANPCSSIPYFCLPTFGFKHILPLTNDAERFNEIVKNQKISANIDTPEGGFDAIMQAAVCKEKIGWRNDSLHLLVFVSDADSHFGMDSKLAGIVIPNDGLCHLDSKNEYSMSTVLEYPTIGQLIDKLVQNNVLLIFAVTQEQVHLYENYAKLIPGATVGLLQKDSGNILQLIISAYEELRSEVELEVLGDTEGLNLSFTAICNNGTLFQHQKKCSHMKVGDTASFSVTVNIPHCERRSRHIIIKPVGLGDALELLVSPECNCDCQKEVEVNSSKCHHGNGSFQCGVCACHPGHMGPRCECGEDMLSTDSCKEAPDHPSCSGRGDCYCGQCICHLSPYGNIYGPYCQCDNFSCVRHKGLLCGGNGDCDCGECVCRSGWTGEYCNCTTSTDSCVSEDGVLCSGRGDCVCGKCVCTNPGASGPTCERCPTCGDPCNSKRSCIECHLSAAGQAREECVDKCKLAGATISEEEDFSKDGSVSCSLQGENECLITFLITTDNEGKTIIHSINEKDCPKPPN
Recombinant human integrin α8β1, sequence (P53708 39-1012): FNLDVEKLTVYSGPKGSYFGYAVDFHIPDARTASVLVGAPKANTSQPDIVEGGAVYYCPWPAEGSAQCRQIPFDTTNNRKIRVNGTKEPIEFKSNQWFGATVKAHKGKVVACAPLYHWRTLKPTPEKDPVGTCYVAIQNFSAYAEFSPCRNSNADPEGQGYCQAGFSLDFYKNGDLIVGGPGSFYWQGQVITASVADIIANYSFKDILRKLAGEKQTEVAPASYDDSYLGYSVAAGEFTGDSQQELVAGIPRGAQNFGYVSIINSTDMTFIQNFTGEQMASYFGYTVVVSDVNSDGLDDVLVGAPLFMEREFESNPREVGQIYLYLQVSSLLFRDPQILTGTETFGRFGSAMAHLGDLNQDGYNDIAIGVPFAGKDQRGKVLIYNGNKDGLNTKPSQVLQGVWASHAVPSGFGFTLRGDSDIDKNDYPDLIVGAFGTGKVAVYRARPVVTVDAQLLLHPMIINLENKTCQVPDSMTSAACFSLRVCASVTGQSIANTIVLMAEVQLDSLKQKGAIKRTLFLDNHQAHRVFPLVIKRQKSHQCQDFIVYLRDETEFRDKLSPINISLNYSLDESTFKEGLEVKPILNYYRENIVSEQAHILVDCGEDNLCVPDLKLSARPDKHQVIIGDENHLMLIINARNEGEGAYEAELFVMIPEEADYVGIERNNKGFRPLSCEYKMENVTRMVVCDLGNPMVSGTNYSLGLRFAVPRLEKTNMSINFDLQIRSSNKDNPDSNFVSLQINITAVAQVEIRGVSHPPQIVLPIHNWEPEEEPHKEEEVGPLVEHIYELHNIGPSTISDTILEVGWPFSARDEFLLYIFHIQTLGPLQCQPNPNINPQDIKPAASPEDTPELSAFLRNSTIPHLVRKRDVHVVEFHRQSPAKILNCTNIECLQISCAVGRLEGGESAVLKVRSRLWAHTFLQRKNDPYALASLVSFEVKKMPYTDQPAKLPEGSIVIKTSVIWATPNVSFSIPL
Recombinant human integrin α8β1, sequence (P05556 21-728): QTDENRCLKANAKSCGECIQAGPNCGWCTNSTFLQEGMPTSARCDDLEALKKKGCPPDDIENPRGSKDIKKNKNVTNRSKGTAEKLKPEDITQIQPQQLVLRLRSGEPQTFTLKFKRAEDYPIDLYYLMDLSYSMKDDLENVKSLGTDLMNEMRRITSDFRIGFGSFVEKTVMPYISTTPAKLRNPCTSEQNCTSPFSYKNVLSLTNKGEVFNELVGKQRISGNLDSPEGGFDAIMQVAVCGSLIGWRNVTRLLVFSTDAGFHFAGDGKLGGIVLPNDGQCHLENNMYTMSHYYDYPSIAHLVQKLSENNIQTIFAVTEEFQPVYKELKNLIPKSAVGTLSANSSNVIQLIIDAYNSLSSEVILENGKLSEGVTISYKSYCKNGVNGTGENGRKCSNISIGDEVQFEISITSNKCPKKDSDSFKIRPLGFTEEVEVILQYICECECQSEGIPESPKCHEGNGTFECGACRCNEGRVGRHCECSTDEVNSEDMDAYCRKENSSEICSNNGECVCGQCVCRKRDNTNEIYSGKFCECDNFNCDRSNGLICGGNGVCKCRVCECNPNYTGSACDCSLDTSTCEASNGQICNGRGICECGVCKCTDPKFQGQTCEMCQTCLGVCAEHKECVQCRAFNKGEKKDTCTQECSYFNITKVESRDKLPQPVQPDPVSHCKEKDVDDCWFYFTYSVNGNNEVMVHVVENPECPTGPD

As for `Cc1cc(Cl)cc([C@@H](CC(=O)O)NC(=O)CNC(=O)c2cc(O)cc(NC3=NCC(O)CN3)c2)c1O` (stereo partly drawn) [Example C10, reference compound], the IC50 stood at 10 nM in assay [1], 6 nM in assay [2] and 3 nM in assay [3].

For the compound `Cc1ccc(O)c(C(CC(=O)O)NC(=O)CNC(=O)c2cccc(NC(=N)N)c2)c1` (stereo not drawn) [Example C8, reference compound], the IC50 was 594 nM in assay [1], 5 nM in assay [2] and 2 nM in assay [3].

As for `O=C(O)C[C@H](NC(=O)CNC(=O)c1cc(O)cc(NC2=NCC(O)CN2)c1)c1cc(F)cc(Br)c1` (stereo partly drawn) [Example 13, (3S)-3-[3-bromo-5-fluoro-phenyl)-3-(2-(3-hydroxy-5-((5-hydroxy-1,4,5,6-tetrahydropyrimidin-2-yl)amino)benzamido)acetamido)propanoic acid], the results for the IC50 in assay [1], in assay [2] and in assay [3] were 0.6 nM, 1.7 nM and 0.4 nM, respectively.

On to `O=C(O)C[C@H](NC(=O)CNC(=O)c1cc(O)cc(NC2=NCC(O)CN2)c1)c1cc(Cl)cc(C(F)(F)F)c1` (stereo partly drawn) [Example 5, (3S)-3-[3-chloro-5-(trifluoromethyl)phenyl)-3-(2-(3-hydroxy-5-((5-hydroxy-1,4,5,6-tetrahydropyrimidin-2-yl)amino)benzamido)acetamido]propanoic acid], for which the results for the IC50 in assay [1], in assay [2] and in assay [3] were 0.9 nM, 3 nM and 0.5 nM, respectively.

On to `O=C(O)C[C@H](NC(=O)CNC(=O)c1cc(O)cc(NC2=NCC(O)CN2)c1)c1cc(Cl)cc(OC(F)(F)F)c1` (stereo partly drawn) [Example 16, (3S)-3-[3-chloro-5-(trifluoromethoxy)phenyl)-3-(2-(3-hydroxy-5-((5-hydroxy-1,4,5,6-tetrahydropyrimidin-2-yl)amino)benzamido)acetamido)propanoic acid], for which the IC50 in assay [1] came to 0.5 nM; in assay [2], 3 ± 0.3 nM; in assay [3] it was 0.5 nM.

`O=C(O)C[C@H](NC(=O)CNC(=O)c1cncc(NC2=NCC(O)CN2)c1)c1cc(Br)cc(C(F)(F)F)c1` (stereo partly drawn) [Example 9, (3S)-3-[3-bromo-5-(trifluoromethyl)phenyl]-3-[[2-[[5-[(5-hydroxy-1,4,5,6-tetrahydropyrimidin-2-yl)amino]pyridine-3-carbonyl]amino]acetyl]amino]propanoic acid]: the IC50 in assay [1] is 0.5 nM; in assay [2], 3 nM; in assay [3] it was 0.3 nM.

Regarding `O=C(O)C[C@H](NC(=O)CNC(=O)c1cc(O)cc(NC2=NCC(O)CN2)c1)c1cc(Br)cc(Br)c1` (stereo partly drawn) [Example 1, (3S)-3-(3,5-dibromophenyl)-3-(2-(3-hydroxy-5-((5-hydroxy-1,4,5,6-tetrahydropyrimidin-2-yl)amino)benzamido)acetamido)propanoic acid], the 50% inhibitory concentration (IC50) in assay [1] is 1.3 nM; in assay [2] it was 2.3 ± 0.1 nM; in assay [3], 0.4 nM.

On to `O=C(O)C[C@H](NC(=O)CNC(=O)c1cc(O)cc(NC2=NCC(O)CN2)c1)c1cc(Br)cc(C(F)F)c1` (stereo partly drawn) [Example 4, (3S)-3-[3-bromo-5-(difluoromethyl)phenyl)-3-(2-(3-hydroxy-5-((5-hydroxy-1,4,5,6-tetrahydropyrimidin-2-yl)amino)benzamido)acetamido]propanoic acid], for which the figures for the IC50 in assay [1], in assay [2] and in assay [3] were 0.6 nM, 3 nM and 0.4 nM, respectively.

Take `Cc1cc(C)cc(C(CC(=O)O)NC(=O)CNC(=O)c2cccc(NC(=N)N)c2)c1` (stereo not drawn) [Example C4, reference compound]: the IC50 in assay [1] worked out at 63 nM; in assay [2], 4 nM; in assay [3], 2 nM.

Turning to `N=C(N)Nc1cccc(C(=O)NCC(=O)NC(CC(=O)O)c2cc(F)cc(C(F)(F)F)c2)c1` (stereo not drawn) [Example C9, reference compound], the IC50 in assay [1] is 40 nM; in assay [2] it was 4 ± 1 nM; in assay [3], 1 nM.

As for `Cc1cc(Cl)cc([C@@H](CC(=O)O)NC(=O)CNC(=O)c2cccc(NC3=NCCN3)c2)c1O` [Example C11, reference compound], the IC50 worked out at 17 nM in assay [1], 9 nM in assay [2] and 4 nM in assay [3].

Take `O=C(O)C[C@H](NC(=O)CNC(=O)c1cc(O)cc(NC2=NCC(O)CN2)c1)c1cc(Br)cc(C(F)(F)F)c1` (stereo partly drawn) [Example 2, (3S)-3-(3-bromo-5-(trifluoromethyl)phenyl)-3-(2-(3-hydroxy-5-((5-hydroxy-1,4,5,6-tetrahydropyrimidin-2-yl)amino)benzamido)acetamido)propanoic acid]: the IC50 in assay [1] is 1.5 nM; in assay [2], 2.7 ± 0.4 nM; in assay [3], 0.3 nM.

On to `O=C(O)C[C@H](NC(=O)CNC(=O)c1cc(O)cc(NC2=NCC(O)CN2)c1)c1cc(Br)cc(OC(F)(F)F)c1` (stereo partly drawn) [Example 17, (3S)-3-(3-bromo-5-(trifluoromethoxy)phenyl)-3-(2-(3-hydroxy-5-((5-hydroxy-1,4,5,6-tetrahydropyrimidin-2-yl)amino)benzamido)acetamido)propanoic acid], for which the half-maximal inhibitory concentration (IC50) in assay [1] worked out at 0.7 nM; in assay [2], 2.8 ± 1.1 nM; in assay [3] it was 0.7 nM.

Turning to `O=C(O)C[C@H](NC(=O)CNC(=O)c1cc(O)cc(NC2=NCC(O)CN2)c1)c1cc(Cl)cc(Cl)c1` (stereo partly drawn) [Example 15, (3S)-3-[3,5-dichloro-phenyl)-3-(2-(3-hydroxy-5-((5-hydroxy-1,4,5,6-tetrahydropyrimidin-2-yl)amino)benzamido)acetamido)propanoic acid], the IC50 is 1.2 nM in assay [1], 4 nM in assay [2] and 0.6 nM in assay [3].

With `O=C(O)C[C@H](NC(=O)CNC(=O)c1cc(O)cc(NC2=NCC(O)CN2)c1)c1cc(Cl)cc(C(F)F)c1` (stereo partly drawn) [Example 3, (3S)-3-[3-chloro-5-(difluoromethyl)phenyl)-3-(2-(3-hydroxy-5-((5-hydroxy-1,4,5,6-tetrahydropyrimidin-2-yl)amino)benzamido)acetamido]propanoic acid], the results for the IC50 in assay [1], in assay [2] and in assay [3] were 0.9 nM, 1 nM and 0.4 nM, respectively.
